We go through 25 molecules from US11014911B2, “CDK2 inhibitors” (Pfizer Inc., priority 2019, dated 2021).

Some results are limits rather than exact numbers.

Chain of GSK3β (H350L) (P49841 whole entry, stated change not applied): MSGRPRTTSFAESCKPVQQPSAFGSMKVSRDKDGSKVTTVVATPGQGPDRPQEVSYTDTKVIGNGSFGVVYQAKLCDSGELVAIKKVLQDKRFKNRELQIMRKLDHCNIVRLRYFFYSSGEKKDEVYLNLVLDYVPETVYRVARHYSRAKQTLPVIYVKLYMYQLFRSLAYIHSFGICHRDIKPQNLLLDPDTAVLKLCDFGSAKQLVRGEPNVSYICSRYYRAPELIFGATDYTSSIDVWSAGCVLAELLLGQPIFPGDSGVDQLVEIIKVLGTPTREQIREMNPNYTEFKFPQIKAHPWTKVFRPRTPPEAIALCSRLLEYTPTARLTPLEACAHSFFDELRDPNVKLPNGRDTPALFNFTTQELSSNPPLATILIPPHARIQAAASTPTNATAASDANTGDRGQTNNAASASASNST

One test has as its target GSK3β (H350L) (Homo sapiens (Human), UniProt P49841).
Test: not given
The following applies: read-out: GSK3β Ki.
Turning to `CC[C@H](C)NC(=O)O[C@@H]1CC[C@H](c2cc(NC(=O)Cc3ccc4c(cnn4C)c3)n[nH]2)C1` [Example 48], the Ki (usually a dissociation constant, usually derived from enzyme kinetics or from competition with a known ligand) was determined as 9.58 nM.
Turning to `CC[C@H](C)NC(=O)O[C@@H]1CC[C@H](c2cc(NC(=O)Cc3cc(OC)ccc3S(C)(=O)=O)n[nH]2)C1` [Example 50], the Ki turned out to be 117 nM.
The same measure, in the same setting: in the case of `CC[C@H](C)NC(=O)O[C@@H]1CC[C@H](c2cc(NC(=O)c3ccnn3CCOC)n[nH]2)C1` [Example 51] it was 54 nM; in that of `CC[C@H](C)NC(=O)O[C@@H]1CC[C@H](c2cc(NC(=O)Cc3cc(O)ncc3S(C)(=O)=O)n[nH]2)C1` [Example 52], 10.9 nM.
As for `CC[C@H](C)NC(=O)O[C@@H]1CC[C@H](c2cc(NC(=O)c3ccnn3CCO)n[nH]2)C1` [Example 53], the Ki stood at 45.7 nM.
For `CCCNC(=O)O[C@@H]1CC[C@H](c2cc(NC(=O)Cc3ccc4c(cnn4C)c3)n[nH]2)C1` [Example 54], the inhibitory constant (Ki) worked out at 9.25 nM.
With `CC(C)NC(=O)O[C@@H]1CC[C@H](c2cc(NC(=O)Cc3ccc4c(cnn4C)c3)n[nH]2)C1` [Example 55], the Ki is 10.4 nM.
Still for that read-out and setting: in the case of `COc1cc(CC(=O)Nc2cc([C@H]3CC[C@@H](OC(=O)N(C)C(C)C)C3)[nH]n2)ccn1` [Example 58] it was 9.86 nM; in that of `COc1ccc(CC(=O)Nc2cc([C@H]3CC[C@@H](OC(=O)N(C)C(C)C)C3)[nH]n2)cn1` [Example 59], 2.89 nM; in that of `CC(C)NC(=O)O[C@@H]1CC[C@H](c2cc(NC(=O)Cc3cnn(C)c3)n[nH]2)C1` [Example 60], 92.5 nM.
On to `CCC(C)(C)NC(=O)O[C@@H]1CC[C@H](c2cc(NC(=O)Cc3cnn(C)c3)n[nH]2)C1` [Example 61], for which the inhibition constant (Ki) came to 42.3 nM.
Take `CCC(C)(C)NC(=O)O[C@@H]1CC[C@H](c2cc(NC(=O)Cc3ncc(C)o3)n[nH]2)C1` [Example 62]: the inhibition constant Ki is 24 nM.
Still for that read-out and setting: in the case of `C[C@@H](CC(F)(F)F)NC(=O)O[C@@H]1CC[C@H](c2cc(NC(=O)c3cnnn3C)n[nH]2)C1` [Example 91] it was 28.1 nM; in that of `C[C@@H](CC(F)(F)F)NC(=O)O[C@@H]1CC[C@H](c2cc(NC(=O)Cc3cnn(C)c3)n[nH]2)C1` [Example 92], 16.6 nM.
Turning to `Cc1coc(CC(=O)Nc2cc([C@H]3CC[C@@H](OC(=O)N[C@@H](C)CC(F)(F)F)C3)[nH]n2)n1` [Example 93], the Ki amounted to 7.64 nM.
Same read-out and setting: to `Cc1cnc(CC(=O)Nc2cc([C@H]3CC[C@@H](OC(=O)NC(C)(C)CC(F)(F)F)C3)[nH]n2)o1` [Example 95] belongs 32.2 nM.
Still for that read-out and setting: to `COc1cc(CC(=O)Nc2cc([C@H]3CC[C@@H](OC(=O)N[C@@H](C)CF)C3)[nH]n2)ccn1` [Example 100] belongs 41.7 nM; to `COc1cc(CC(=O)Nc2cc([C@H]3CC[C@@H](OC(=O)N[C@@H](C)[C@@H](C)F)C3)[nH]n2)ccn1` [Example 101], 20.9 nM; to `COc1cc(CC(=O)Nc2cc([C@H]3CC[C@@H](OC(=O)NCCC(F)(F)F)C3)[nH]n2)ccn1` [Example 102], 9.9 nM.
Take `COCc1cc(C(=O)Nc2cc([C@H]3CC[C@@H](OC(=O)NCCC(F)(F)F)C3)[nH]n2)n(C)n1` [Example 103]: the Ki is more than 47.6 nM.
For `COCc1cc(C(=O)Nc2cc([C@H]3CC[C@@H](OC(=O)N[C@@H](C)C4CC4)C3)[nH]n2)n(C)n1` [Example 104], the Ki is more than 47.6 nM.
On the same count and under the same terms, to `COCc1cc(C(=O)Nc2cc([C@H]3CC[C@@H](OC(=O)N[C@H](C)C4CC4)C3)[nH]n2)n(C)n1` [Example 105] belongs more than 47.6 nM; to `Cc1cc(CC(=O)Nc2cc([C@H]3CC[C@@H](OC(=O)NC(C)(C)C)C3)[nH]n2)on1` [Example 107], 27.1 nM.
In the case of `CC(C)(C)NC(=O)O[C@@H]1CC[C@H](c2cc(NC(=O)Cc3ccno3)n[nH]2)C1` [Example 108], the Ki is 38.8 nM.
With `COc1cnc(CC(=O)Nc2cc([C@H]3CC[C@@H](OC(=O)NC(C)(C)C)C3)[nH]n2)cn1` [Example 109], the Ki worked out at 39.2 nM.

A further test concerns the target CDK2/Cyclin E1 full length (Homo sapiens (Human), UniProt P24941). The test is described as follows: CDK2/Cyclin E1 full length mobility shift assay.
Settings: not given
Type of test: biochemical.
Consider `CC[C@H](C)NC(=O)O[C@@H]1CC[C@H](c2cc(NC(=O)Cc3ccc4c(cnn4C)c3)n[nH]2)C1` [Example 48], for which the Ki is 0.17 nM.
Turning to `CC[C@H](C)NC(=O)O[C@@H]1CC[C@H](c2cc(NC(=O)Cc3cc(OC)ccc3S(C)(=O)=O)n[nH]2)C1` [Example 50], the inhibitory constant (Ki) came to 0.17 nM.
Same read-out and setting: to `CC[C@H](C)NC(=O)O[C@@H]1CC[C@H](c2cc(NC(=O)c3ccnn3CCOC)n[nH]2)C1` [Example 51] belongs 0.2 nM.
The same measure, in the same setting: in the case of `CC[C@H](C)NC(=O)O[C@@H]1CC[C@H](c2cc(NC(=O)Cc3cc(O)ncc3S(C)(=O)=O)n[nH]2)C1` [Example 52] it was 0.2 nM; in that of `CC[C@H](C)NC(=O)O[C@@H]1CC[C@H](c2cc(NC(=O)c3ccnn3CCO)n[nH]2)C1` [Example 53], 0.1 nM.
Same read-out and setting: to `CCCNC(=O)O[C@@H]1CC[C@H](c2cc(NC(=O)Cc3ccc4c(cnn4C)c3)n[nH]2)C1` [Example 54] belongs 0.24 nM.
Turning to `CC(C)NC(=O)O[C@@H]1CC[C@H](c2cc(NC(=O)Cc3ccc4c(cnn4C)c3)n[nH]2)C1` [Example 55], the inhibition constant (Ki) came to 0.1 nM.
The same measure, in the same setting: in the case of `COc1cc(CC(=O)Nc2cc([C@H]3CC[C@@H](OC(=O)N(C)C(C)C)C3)[nH]n2)ccn1` [Example 58] it was 0.21 nM.
For the molecule `COc1ccc(CC(=O)Nc2cc([C@H]3CC[C@@H](OC(=O)N(C)C(C)C)C3)[nH]n2)cn1` [Example 59], the Ki worked out at 0.15 nM.
Same read-out and setting: in the case of `CC(C)NC(=O)O[C@@H]1CC[C@H](c2cc(NC(=O)Cc3cnn(C)c3)n[nH]2)C1` [Example 60] it was 0.33 nM; in that of `CCC(C)(C)NC(=O)O[C@@H]1CC[C@H](c2cc(NC(=O)Cc3cnn(C)c3)n[nH]2)C1` [Example 61], 0.11 nM; in that of `CCC(C)(C)NC(=O)O[C@@H]1CC[C@H](c2cc(NC(=O)Cc3ncc(C)o3)n[nH]2)C1` [Example 62], 0.21 nM.
On the same count and under the same terms, in the case of `C[C@@H](CC(F)(F)F)NC(=O)O[C@@H]1CC[C@H](c2cc(NC(=O)c3cnnn3C)n[nH]2)C1` [Example 91] it was 0.09 nM.
Same read-out and setting: to `C[C@@H](CC(F)(F)F)NC(=O)O[C@@H]1CC[C@H](c2cc(NC(=O)Cc3cnn(C)c3)n[nH]2)C1` [Example 92] belongs 0.1 nM; to `Cc1coc(CC(=O)Nc2cc([C@H]3CC[C@@H](OC(=O)N[C@@H](C)CC(F)(F)F)C3)[nH]n2)n1` [Example 93], 0.22 nM.
With `Cc1cnc(CC(=O)Nc2cc([C@H]3CC[C@@H](OC(=O)NC(C)(C)CC(F)(F)F)C3)[nH]n2)o1` [Example 95], the inhibitory constant (Ki) amounted to 0.25 nM.
For the molecule `COc1cc(CC(=O)Nc2cc([C@H]3CC[C@@H](OC(=O)N[C@@H](C)CF)C3)[nH]n2)ccn1` [Example 100], the Ki came out at 0.43 nM.
For the molecule `COc1cc(CC(=O)Nc2cc([C@H]3CC[C@@H](OC(=O)N[C@@H](C)[C@@H](C)F)C3)[nH]n2)ccn1` [Example 101], the inhibition constant (Ki) was determined as 0.28 nM.
Same read-out and setting: in the case of `COc1cc(CC(=O)Nc2cc([C@H]3CC[C@@H](OC(=O)NCCC(F)(F)F)C3)[nH]n2)ccn1` [Example 102] it was 0.39 nM; in that of `COCc1cc(C(=O)Nc2cc([C@H]3CC[C@@H](OC(=O)NCCC(F)(F)F)C3)[nH]n2)n(C)n1` [Example 103], 1.37 nM.
Turning to `COCc1cc(C(=O)Nc2cc([C@H]3CC[C@@H](OC(=O)N[C@@H](C)C4CC4)C3)[nH]n2)n(C)n1` [Example 104], the Ki turned out to be 0.17 nM.
On to `COCc1cc(C(=O)Nc2cc([C@H]3CC[C@@H](OC(=O)N[C@H](C)C4CC4)C3)[nH]n2)n(C)n1` [Example 105], for which the Ki was 0.47 nM.
The same measure, in the same setting: in the case of `Cc1cc(CC(=O)Nc2cc([C@H]3CC[C@@H](OC(=O)NC(C)(C)C)C3)[nH]n2)on1` [Example 107] it was 0.19 nM.
As to `CC(C)(C)NC(=O)O[C@@H]1CC[C@H](c2cc(NC(=O)Cc3ccno3)n[nH]2)C1` [Example 108], the Ki stood at 0.15 nM.
Same read-out and setting: to `COc1cnc(CC(=O)Nc2cc([C@H]3CC[C@@H](OC(=O)NC(C)(C)C)C3)[nH]n2)cn1` [Example 109] belongs 0.68 nM.
